Ends that are not written are not given here.
system: HIV-1; conditions: AIDS patients, clinical trials; cited from earlier work

| Substance | HIV-1 load |
| --- | --- |
| enfuvirtide | substantially reduce |

system: HCV pseudotype (HIV core proteins, HCV E1 and E2 of strain H77); conditions: 25 μM

| Substance | Percent inhibition [%] |
| --- | --- |
| RCGSGPWITPRCMVDYPY [compound 30] | −46.2 |
| RSELSPLLLSTTQWQVLP [compound 39, RSELSPLLLSTTQWQVLP] | 11.6 |
| SIASWAIKWEYVVLLFLL [compound 46, SIASWAIKWEYVVLLFLL] | 77.0 |
| SPVVVGTTDRSGAPTYSW [compound 19, SPVVVGTTDRSGAPTYSW] | 32.7 |
| SPVVVGTTDRSGVPTYSW [compound 95, SPVVVGTTDRSGVPTYSW] | −20.1 |
| SSGCPERLASCRRLTDFA [compound 10] | 25.4 |
| SSGCPERMASCRPIDWFA [compound 87] | 10.8 |
| TDFAQGWGPISYANGSGL [compound 12, TDFAQGWGPISYANGSGL] | 6.8 |
| TDRSGVPTYSWGENETDV [compound 96, TDRSGVPTYSWGENETDV] | −21.5 |
| TGFFAALFYAHKFNSSGC [compound 51, TGFFAALFYAHKFNSSGC] | 47.1 |
| TGLIHLHQNIVDVQYLYG [compound 43, TGLIHLHQNIVDVQYLYG] | 92.8 |
| TKTCGGPPCNIGGVGNRT [compound 101] | −12.0 |
| TKVCGAPPCVIGGVGNNT [compound 25] | 7.2 |
| TSLFSSGASQKIQLVNTN [compound 82, TSLFSSGASQKIQLVNTN] | 61.4 |
| TTLPALSTGLIHLHQNIV [compound 42, TTLPALSTGLIHLHQNIV] | 19.1 |
| TTLPALSTGLIHLHQNIV [compound 117, TTLPALSTGLIHLHQNIV] | 19.8 |
| TYSWGANDTDVFVLNNTR [compound 20, TYSWGANDTDVFVLNNTR] | 48.4 |
| TYSWGENETDVMLLNNTR [compound 97, TYSWGENETDVMLLNNTR] | 51.2 |
| VGLLTPGAKQNIQLINTN [peptide 4, VGLLTPGAKQNIQLINTN] | 97.6 |
| WMNSTGFTKTCGGPPCNI [compound 100] | −15.6 |
| WMNSTGFTKVCGAPPCVI [compound 24] | 19.7 |
| YLYGVGSSIASWAIKWEY [compound 45, YLYGVGSSIASWAIKWEY] | 94.5 |
| YTIFKVRMYVGGVEHRLE [compound 34, YTIFKVRMYVGGVEHRLE] | 21.8 |

same assay, conditions: HCV H77 1a E2 peptides at ~25 μM; Table 7; virus alone 448,123

| Substance | Luciferase units |
| --- | --- |
| RCGSGPWITPRCMVDYPY [compound 30] | 655,040 luciferase units (lumens) |
| RSELSPLLLSTTQWQVLP [compound 39, RSELSPLLLSTTQWQVLP] | 400,756 luciferase units (lumens) |
| SIASWAIKWEYVVLLFLL [compound 46, SIASWAIKWEYVVLLFLL] | 103,040 luciferase units (lumens) |
| SPVVVGTTDRSGAPTYSW [compound 19, SPVVVGTTDRSGAPTYSW] | 301,406 luciferase units (lumens) |
| SSGCPERLASCRRLTDFA [compound 10] | 334,196 luciferase units (lumens) |
| TDFAQGWGPISYANGSGL [compound 12, TDFAQGWGPISYANGSGL] | 417,706 luciferase units (lumens) |
| TGLIHLHQNIVDVQYLYG [compound 43, TGLIHLHQNIVDVQYLYG] | 32,283 luciferase units (lumens) |
| TKVCGAPPCVIGGVGNNT [compound 25] | 480,280 luciferase units (lumens) |
| TTLPALSTGLIHLHQNIV [compound 42, TTLPALSTGLIHLHQNIV] | 353,516 luciferase units (lumens) |
| TYSWGANDTDVFVLNNTR [compound 20, TYSWGANDTDVFVLNNTR] | 231,373 luciferase units (lumens) |
| VGLLTPGAKQNIQLINTN [peptide 4, VGLLTPGAKQNIQLINTN] | 10,620 luciferase units (lumens) |
| WMNSTGFTKVCGAPPCVI [compound 24] | 391,886 luciferase units (lumens) |
| YLYGVGSSIASWAIKWEY [compound 45, YLYGVGSSIASWAIKWEY] | 24,703 luciferase units (lumens) |
| YTIFKVRMYVGGVEHRLE [compound 34, YTIFKVRMYVGGVEHRLE] | 354,696 luciferase units (lumens) |

same assay, conditions: HCV J4 1b E2 peptides at ~25 μM; Table 8; controls as in Table 7

| Substance | Luciferase units |
| --- | --- |
| SPVVVGTTDRSGVPTYSW [compound 95, SPVVVGTTDRSGVPTYSW] | 538,110 luciferase units (lumens) |
| SSGCPERMASCRPIDWFA [compound 87] | 399,700 luciferase units (lumens) |
| TDRSGVPTYSWGENETDV [compound 96, TDRSGVPTYSWGENETDV] | 544,596 luciferase units (lumens) |
| TGFFAALFYAHKFNSSGC [compound 51, TGFFAALFYAHKFNSSGC] | 237,086 luciferase units (lumens) |
| TKTCGGPPCNIGGVGNRT [compound 101] | 502,096 luciferase units (lumens) |
| TSLFSSGASQKIQLVNTN [compound 82, TSLFSSGASQKIQLVNTN] | 173,156 luciferase units (lumens) |
| TTLPALSTGLIHLHQNIV [compound 117, TTLPALSTGLIHLHQNIV] | 359,236 luciferase units (lumens) |
| TYSWGENETDVMLLNNTR [compound 97, TYSWGENETDVMLLNNTR] | 218,673 luciferase units (lumens) |
| WMNSTGFTKTCGGPPCNI [compound 100] | 518,190 luciferase units (lumens) |

same assay, conditions: summary of Tables 7 and 8

| Substance | Inhibition of HCV pseudotype infectivity (in words) |
| --- | --- |
| SIASWAIKWEYVVLLFLL [compound 46, SIASWAIKWEYVVLLFLL] | inhibitory |
| TGLIHLHQNIVDVQYLYG [compound 43, TGLIHLHQNIVDVQYLYG] | inhibitory |
| VGLLTPGAKQNIQLINTN [peptide 4, VGLLTPGAKQNIQLINTN] | inhibitory |
| YLYGVGSSIASWAIKWEY [compound 45, YLYGVGSSIASWAIKWEY] | inhibitory |

From patent US7381705B2, “Inhibitors of hepatitis C virus” (The Administrators Of The Tulane Educational Fund, priority 2004, dated 2008)
